Values of other authors in article PMC4875922 (Drugs in R&D, 2016).

Assays:
[1] = not given; remark: listed apart in the source

linearity of pharmacokinetics [1]: non-linear pharmacokinetics
Structure (SMILES): O=C(Nc1cccnn1)N1CCC(=Cc2cccc(Oc3ccc(C(F)(F)F)cn3)c2)CC1 [PF-04457845]
effect in phase II study in osteoarthritic pain: without effect | tolerability ([1]; at doses that cause maximal inhibition of FAAH and elevation of plasma endocannabinoids): well tolerated
